Experiments:
[1] = Stability of S-59 in InterSol PAS protected from ambient light (HPLC); format: physicochemical; conditions: S-59 230 μM in InterSol PAS, room temp, protected from light
Protocol: Additional studies evaluated stability of the S-59 (amotosalen) pathogen inactivation compound formulated in a platelet additive solution (PAS), but protected from ambient light exposure. A 230 μM solution of S-59 was prepared in the commercially available PAS solution InterSol® (Fenwal Inc.) and maintained at room temperature protected from ambient light conditions. HPLC analysis was performed on samples at times listed in Table 2 for both S-59 and photoproducts.

[2] = Stability of S-59 in InterSol PAS under ambient light (HPLC); format: physicochemical; conditions: S-59 230 μM in InterSol PAS, room temp
Protocol: Initial studies evaluated stability of the pathogen inactivation compound amotosalen (S-59) that was formulated in a platelet additive solution (PAS). A 230 μM solution of psoralen compound S-59 (Irsch et al., Transfus Med Hemother, 38: 19-31 (2011)) was prepared in the commercially available PAS solution InterSol® (Fenwal Inc.) and maintained at room temperature under ambient light conditions. HPLC analysis was performed on samples at times listed in Table 1 for both S-59 and photoproducts. […] S-59 data are shown as both concentration (μM), as well as peak area (S-59 UV) for relative comparison to any photoproducts detected with HPLC (Table 1). Peak D and Peak E photoproducts also were observed by 22 hr and 72 hr, respectively, as well as process impurity decomposition product 4′-HMT, with peak area values indicated (Table 1).

Cc1oc2c(C)c3oc(=O)cc(C)c3cc2c1CO [4′-HMT]
4′-HMT UV peak area (HPLC) ([1]; 5.5 hr): 3.7162
4′-HMT UV peak area (HPLC) ([1]; 21.5 hr): 4.3525
4′-HMT UV peak area (HPLC) ([1]; 28.5 hr): 3.8628
4′-HMT UV peak area (HPLC) ([1]; 44 hr): 4.0199
4′-HMT UV peak area (HPLC) ([1]; 45.5 hr): 4.4036
4′-HMT UV peak area (HPLC) ([1]; 53 hr): 4.0582
4′-HMT UV peak area (HPLC) ([1]; 77 hr): 4.4268
4′-HMT UV peak area (HPLC) ([1]; T 0): 3.8849
4′-HMT UV peak area (HPLC) ([2]; 5 hr): 5.624
4′-HMT UV peak area (HPLC) ([2]; 6 hr): 5.090
4′-HMT UV peak area (HPLC) ([2]; 22 hr): 5.125
4′-HMT UV peak area (HPLC) ([2]; 30 hr): 5.334
4′-HMT UV peak area (HPLC) ([2]; 47 hr): 4.954
4′-HMT UV peak area (HPLC) ([2]; 56 hr): 4.742
4′-HMT UV peak area (HPLC) ([2]; 72 hr): 4.839
4′-HMT UV peak area (HPLC) ([2]; 78 hr): 4.793
4′-HMT UV peak area (HPLC) ([2]; T 0): 4.924

Source: patent US20190085289A1, “COMPOSITIONS AND METHODS FOR PATHOGEN INACTIVATION OF PLATELETS” (Cerus Corporation, priority 2017, published 2019)
